Data as given in article PMC8778818, “Synthesis, Structural Characterization and Anticancer Activity of New 5-Trifluoromethyl-2-thioxo-thiazolo[4,5-d]pyrimidine Derivatives” (Pharmaceuticals, 2022).

Assays:
C32 = test: MTT cell viability assay, C32; format: cell-based, human; conditions: Homo sapiens; C32, MTT, 72 h, mean ± SD
Method: (§1) Twelve compounds (2a-e, 3a-d and 4a-c) at a concentration range of 50–5000 μM were tested for their antiproliferative potential against four human cancer cell lines (A375—melanotic melanoma, C32—amelanotic melanoma, DU145—prostate cancer androgen-independent, MCF-7/WT—breast adenocarcinoma) and two normal cell lines: Chinese Hamster Ovary (CHO-K1) and immortalized human keratinocytes from histologically normal skin (HaCaT).
(§2) To determine the antiproliferative activity of newly synthesized compounds, the following cell lines were used: human melanotic melanoma cell line (A375), human amelanotic melanoma cell line (C32), human breast adenocarcinoma cell line (MCF-7/WT), human prostate cancer androgen-independent (DU145) and two normal cell lines: hamster ovarian (CHO-K1) and immortalized human keratinocytes from histologically normal skin (HaCaT). The cells were obtained from the cell line bank of the Department of Molecular and Cellular Biology, Wroclaw Medical University. A375, C32, MCF-7/WT, DU145 and HaCaT cells were grown in a monolayer cultured in Dulbecco’s Modified Eagle’s Medium (DMEM, Sigma-Aldrich, Poznań, Poland), supplemented with 10% of fetal bovine serum (FBS, Gibco, Paisley, UK) and 1% of antibiotics (penicillin/streptomycin, Sigma-Aldrich) and CHO-K1 were grown in HAM’s F-12 medium (Sigma-Aldrich), supplemented with 10% fetal bovine serum (FBS, Gibco) and 1% of antibiotics (penicillin/streptomycin, Sigma-Aldrich). Cell lines were cultured in the polystyrene flasks 25 or 75 cm^2 (Thermo Fisher Scientific, Waltham, MA, USA), which were stored in 37 °C and 5% CO2 in a humidified 95% atmosphere (SteriCult, Thermo Scientific, Alab). The cell medium was exchanged twice a week. The exponentially growing cells were used throughout the experiments. The cells were rinsed with phosphate-buffered saline (PBS, Sigma-Aldrich) and trypsinized by Trypsin-EDTA 0.25% solution (Sigma-Aldrich).
(§3) The influence of the compounds was performed in a monolayer culture on cancer and normal cells. Compounds were initially dissolved in DMSO; further dilutions of the compound were performed in Dulbecco’s Modified Eagle’s Medium supplemented with 10% FBS. Compounds were tested in a 50–5000 µM concentration range. In the in vitro experiments, the concentrations of DMSO in the final solution of the compounds were used 0.05%; 0.1%; 0.5%; 1%, respectively.
(§4) Cell viability was determined using the MTT colorimetric assay. All cell lines were seeded into 96-well plates to a density of 3 × 10^4 cells/well. After 24 h, the culture supernatants were removed and appropriate dilutions of compounds in the culture medium (200 µL/well) were added to the cells’ monolayer cultures and incubated for an additional 72 h. After 72 h of exposition to the compounds and the removal of the culture medium, cell viability was determined by reducing the yellow dye 3-(4,5-dimethyl-2-thiazol)-2,5-diphenyl-2H-tetrazolium bromide (MTT assay, Sigma Saint Louis, MO, USA; In Vitro Toxicology Assay) to a blue formazan product. The absorbance of the resulting solutions in three duplicate experiments was measured at the wavelength of 560 nm in a microplate reader (EnSpire, Perkin Elmer, Kraków, Poland). MTT assay is a colorimetric method that estimates the rate of metabolism in viable cells. Absorbance is directly proportional to the number of viable cells. All the experiments were performed three times and the mean absorbance values were calculated. The methodology for the evaluation of the growth of human cancer and normal cells was described previously. The cell viability in each group was expressed as a percentage of control (untreated) cells.

HaCaT = test: MTT cell viability assay, HaCaT; format: cell-based, human; conditions: Homo sapiens; HaCaT normal cells, MTT, 72 h, mean ± SD
Method: as §1, §2, §3, §4

[1] = system: A375, C32, DU145, MCF-7/WT, CHO-K1 and HaCaT cell lines; test: MTT cell viability assay, all six cell lines; format: cell-based; conditions: mean over the six cell lines; read-out: Mean A: the mean IC50 for the given compound
Method: as §1, §2, §3, §4

HL-60(TB) = test: NCI-60 screen, Leukemia HL-60(TB); format: cell-based, human; conditions: 10^−5 M one dose
MOLT-4 = test: NCI-60 screen, Leukemia MOLT-4; format: cell-based, human; conditions: MOLT-4, 10^−5 M one dose
SR = test: NCI-60 screen, Leukemia SR; format: cell-based, human; conditions: 10^−5 M one dose
NCI-H23 = test: NCI-60 screen, Non-Small Cell Lung Cancer NCI-H23; format: cell-based, human; conditions: NCI-H23, 10^−5 M one dose
COLO-205 = test: NCI-60 screen, Colon Cancer COLO-205; format: cell-based, human; conditions: COLO-205, 10^−5 M one dose
HT29 = test: NCI-60 screen, Colon Cancer HT29; format: cell-based, human; conditions: HT29, 10^−5 M one dose
SNB-75 = test: NCI-60 screen, CNS Cancer SNB-75; format: cell-based, human; conditions: SNB-75, 10^−5 M one dose
MALME-3M = test: NCI-60 screen, Melanoma MALME-3M; format: cell-based, human; conditions: 10^−5 M one dose
UACC-257 = test: NCI-60 screen, Melanoma UACC-257; format: cell-based; conditions: UACC-257, 10^−5 M one dose
SK-OV-3 = test: NCI-60 screen, Ovarian Cancer SK-OV-3; format: cell-based, human; conditions: SK-OV-3, 10^−5 M one dose
ACHN = test: NCI-60 screen, Renal Cancer ACHN; format: cell-based, human; conditions: 10^−5 M one dose
UO-31 = test: NCI-60 screen, Renal Cancer UO-31; format: cell-based; conditions: UO-31, 10^−5 M one dose
RXF 393 = test: NCI-60 screen, Renal Cancer RXF 393; format: cell-based, human; conditions: RXF 393, 10^−5 M one dose
A498 = test: NCI-60 screen, Renal Cancer A498; format: cell-based, human; conditions: A498, 10^−5 M one dose
PC-3 = test: NCI-60 screen, Prostate C. PC-3; format: cell-based; conditions: PC-3, 10^−5 M one dose

Structure (SMILES)	IC50 (C32)	IC50 (HaCaT)	IC50 [1]	Growth of Cells (%) (HL-60(TB))	Growth of Cells (%) (MOLT-4)	Growth of Cells (%) (SR)	Growth of Cells (%) (NCI-H23)	Growth of Cells (%) (COLO-205)	Growth of Cells (%) (HT29)	Growth of Cells (%) (SNB-75)	Growth of Cells (%) (MALME-3M)	Growth of Cells (%) (UACC-257)	Growth of Cells (%) (SK-OV-3)	Growth of Cells (%) (ACHN)	Growth of Cells (%) (UO-31)	Growth of Cells (%) (RXF 393)	Growth of Cells (%) (A498)	Growth of Cells (%) (PC-3)
CCNc1nc(C(F)(F)F)nc2c1sc(=S)n2-c1ccccc1 [Compound 4b, 7-(ethylamino)-3-phenyl-5-(trifluoromethyl)[1, 3]thiazolo[4,5-d]pyrimidine-2(3H)-thione]	356 ± 15.2 µM	730 ± 31.1 µM	476 µM	98.91%	81.83%	83.46%	93.44%	105.73%	88.76%	99.24%	144.23%	98.66%	101.70%	93.13%	103.75%	100.09%	–	–
Fc1ccc(CNc2nc(C(F)(F)F)nc3c2sc(=S)n3-c2ccccc2)cc1 [Compound 4c]	485 ± 21.2 µM	565 ± 24.7 µM	485 µM	93.41%	96.58%	94.72%	–	112.07%	103.27%	103.11%	106.31%	96.72%	99.96%	99.14%	82.87%	104.44%	121.43%	100.51%
